Source: ChEMBL document CHEMBL5512659, “Structure optimizing of flavonoids against both MRSA and VRE” (Eur J Med Chem, 2024)
Calls of active or inactive are those of the source. The calls are words filed in the database; no cut-off is given here.

Experiments:
[1] = system: Staphylococcus aureus; test: Antibacterial activity against methicillin resistant Staphylococcus aureus clinical isolate 003 in presence of 140 mM/L Na+ (reference value: 1 ug/ml); assay type: functional
[2] = system: Enterococcus faecalis; test: Antibacterial activity against multidrug resistant Enterococcus faecalis ATCC 51299 in presence of 140 mM/L Na+ (reference value: 32 ug/ml); assay type: functional
[3] = system: Staphylococcus aureus; test: Antibacterial activity against methicillin resistant Staphylococcus aureus clinical isolate 003 in presence of 4.5 mM/L K+ (reference value: 1 ug/ml); assay type: functional
[4] = system: Staphylococcus aureus; test: Antibacterial activity against methicillin resistant Staphylococcus aureus clinical isolate 003 in presence of 2.5 mM/L Ca2+ (reference value: 1 ug/ml); assay type: functional
[5] = system: Enterococcus faecalis; test: Antibacterial activity against multidrug resistant Enterococcus faecalis ATCC 51299 in presence of 2.5 mM/L Ca+ (reference value: 32 ug/ml); assay type: functional
[6] = system: Staphylococcus aureus; test: Antibacterial activity against methicillin resistant Staphylococcus aureus clinical isolate 003 in presence of 1 mM/L Mg2+ (reference value: 1 ug/ml); assay type: functional
[7] = system: Enterococcus faecalis; test: Antibacterial activity against multidrug resistant Enterococcus faecalis ATCC 51299 in presence of 1 mM/L Mg2+ (reference value: 32 ug/ml); assay type: functional
[8] = system: Staphylococcus aureus; test: Antibacterial activity against methicillin resistant Staphylococcus aureus clinical isolate 003 in presence of 140 mM/L Na+ (reference value: 0.5 ug/ml); assay type: functional
[9] = system: Staphylococcus aureus; test: Antibacterial activity against methicillin resistant Staphylococcus aureus clinical isolate 003 in presence of 140 mM/L Na+ (reference value: 0.25 ug/ml); assay type: functional
[10] = system: Staphylococcus aureus; test: Antibacterial activity against methicillin resistant Staphylococcus aureus clinical isolate 003 in presence of 4.5 mM/L K+ (reference value: 0.25 ug/ml); assay type: functional
[11] = system: Staphylococcus aureus; test: Antibacterial activity against methicillin resistant Staphylococcus aureus clinical isolate 003 in presence of 2.5 mM/L Ca2+ (reference value: 0.25 ug/ml); assay type: functional
[12] = system: Staphylococcus aureus; test: Antibacterial activity against methicillin resistant Staphylococcus aureus clinical isolate 003 in presence of 1 mM/L Mg2+ (reference value: 0.25 ug/ml); assay type: functional
[13] = Toxicity in Galleria mellonella assessed as survival rate at 1.25 to 10 mg/kg observed after 7 days; assay type: organism-based; conditions: in vivo, dose 1.25-10 mg/kg, time 7 day
[14] = system: Staphylococcus aureus; test: Additive antibacterial activity against methicillin resistant Staphylococcus aureus clinical isolate 003 assessed as fractional inhibitory concentration in presence of ampicillin; assay type: functional
[15] = system: Staphylococcus aureus; test: Additive antibacterial activity against methicillin resistant Staphylococcus aureus clinical isolate 003 assessed as fractional inhibitory concentration in presence of adriamycin hydrochloride; assay type: functional
[16] = system: Staphylococcus aureus; test: Additive antibacterial activity against methicillin resistant Staphylococcus aureus clinical isolate 003 assessed as fractional inhibitory concentration in presence of chloramphenicol; assay type: functional
[17] = system: Staphylococcus aureus; test: Additive antibacterial activity against methicillin resistant Staphylococcus aureus clinical isolate 003 assessed as fractional inhibitory concentration in presence of azithromycin; assay type: functional
[18] = system: Staphylococcus aureus; test: Synergistic antibacterial activity against methicillin resistant Staphylococcus aureus clinical isolate 003 assessed as fractional inhibitory concentration in presence of streptomycin; assay type: functional
[19] = system: Enterococcus faecalis; test: Additive antibacterial activity against multidrug resistant Enterococcus faecalis ATCC 51299 assessed as fractional inhibitory concentration in presence of norfloxacin; assay type: functional
[20] = system: Enterococcus faecalis; test: Synergistic antibacterial activity against multidrug resistant Enterococcus faecalis ATCC 51299 assessed as fractional inhibitory concentration in presence of azithromycin; assay type: functional
[21] = system: Staphylococcus aureus; test: Antibacterial activity against methicillin resistant Staphylococcus aureus clinical isolate 003 infected in cyclophosphamide immunosuppressed mouse model of skin wound infection assessed as wound healing by measuring wound area at 5 mg/kg administered for 7 days and measured on day 8 (reference value: 32.1 […]); assay type: functional; conditions: time 8 day
[22] = system: Staphylococcus aureus; test: Antibacterial activity against methicillin resistant Staphylococcus aureus clinical isolate 003 infected in cyclophosphamide immunosuppressed mouse model of skin wound infection assessed as increase in wound healing by measuring increase in VEGF expression at 1.25 to 5 mg/kg administered for 7 days and measured on day 8 by immunohistochemical analysis; assay type: functional, organism-based; conditions: dose 1.25-5 mg/kg, time 8.0 day
[23] = system: Enterococcus faecalis; test: Antibacterial activity against multidrug resistant Enterococcus faecalis ATCC 51299 infected in cyclophosphamide immunosuppressed mouse model of abdominal infection assessed as eradication of bacterial colonies in liver at 1.25 to 5 mg/kg measured after 60 hrs relative to control; assay type: functional; conditions: dose 1.25-5 mg/kg
[24] = system: Enterococcus faecalis; test: Antibacterial activity against multidrug resistant Enterococcus faecalis ATCC 51299 infected in cyclophosphamide immunosuppressed mouse model of abdominal infection assessed as eradication of bacterial colonies in spleen at 1.25 to 5 mg/kg measured after 60 hrs relative to control; assay type: functional; conditions: dose 1.25-5 mg/kg
[25] = system: Enterococcus faecalis; test: Antibacterial activity against multidrug resistant Enterococcus faecalis ATCC 51299 infected in cyclophosphamide immunosuppressed mouse model of abdominal infection assessed as eradication of bacterial colonies in kidney at 1.25 to 5 mg/kg measured after 60 hrs relative to control; assay type: functional; conditions: dose 1.25-5 mg/kg
[26] = system: Enterococcus faecalis; test: Antibacterial activity against multidrug resistant Enterococcus faecalis ATCC 51299 infected in cyclophosphamide immunosuppressed mouse model of abdominal infection assessed as eradication of bacterial colonies in ascites at 1.25 to 5 mg/kg measured after 60 hrs relative to control; assay type: functional; conditions: dose 1.25-5 mg/kg
[27] = system: Enterococcus faecalis; test: Antibacterial activity against multidrug resistant Enterococcus faecalis ATCC 51299 infected in cyclophosphamide immunosuppressed mouse model of abdominal infection assessed as reduction in cell swelling at 1.25 to 5 mg/kg measured after 60 hrs by H and E staining based analysis; assay type: functional, organism-based; conditions: dose 1.25-5 mg/kg

**Q.** What does the source list for CCCCCCc1c(-c2ccc(OCC(=O)CN[C@H](CCCNC(=N)N)C(=O)OC)cc2OCC(=O)CN[C@H](CCCNC(=N)N)C(=O)OC)oc2cc(OC)cc(O)c2c1=O?
**A.** MIC [1]: 1 µg/mL; MIC [2]: 32 µg/mL; MIC [3]: 2 µg/mL; MIC [4]: 1 µg/mL; MIC [5]: 32 µg/mL; MIC [6]: 1 µg/mL; MIC [7]: 32 µg/mL

**Q.** With CCCCCCc1c(-c2ccc(OCCCCN(C)C)cc2OCCCCN(C)C)oc2cc(OC)cc(O)c2c1=O as the compound, how does the MIC [8] read?
**A.** 1 µg/mL

**Q.** For CCCCCCc1c(-c2ccc(OCCCCNCCCN)cc2OCCCCNCCCN)oc2cc(OC)cc(O)c2c1=O, which MIC [9] is on record?
**A.** 0.25 µg/mL

**Q.** What about the MIC [10] of the same compound?
**A.** 0.125 µg/mL

**Q.** What about the MIC [11] of the same compound?
**A.** 0.25 µg/mL

**Q.** And the MIC [12]?
**A.** 0.25 µg/mL

**Q.** And the survival at 168 h [13]?
**A.** 100%

**Q.** What about the “fractional inhibitory concentration index (FICI)” value [14] of the same compound?
**A.** 0.75

**Q.** What about the “fractional inhibitory concentration index (FICI)” value [15] of the same compound?
**A.** 0.75

**Q.** And the “fractional inhibitory concentration index (FICI)” value [16]?
**A.** 1

**Q.** What about the “fractional inhibitory concentration index (FICI)” value [17] of the same compound?
**A.** 0.75

**Q.** And the “fractional inhibitory concentration index (FICI)” value [18]?
**A.** 0.375

**Q.** And the “fractional inhibitory concentration index (FICI)” value [19]?
**A.** 1

**Q.** And the “fractional inhibitory concentration index (FICI)” value [20]?
**A.** 0.313

**Q.** And the Activity [21]?
**A.** 2.1 mm²

**Q.** What about the Activity [22] of the same compound?
**A.** Active

**Q.** What about the Activity [23] of the same compound?
**A.** 97%

**Q.** What about the Activity [24] of the same compound?
**A.** 95.5%

**Q.** And the Activity [25]?
**A.** 99.2%

**Q.** And the Activity [26]?
**A.** 92.2%

**Q.** What about the Activity [27] of the same compound?
**A.** Active
